The record followed here is PubChem BioAssay (NCI).

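Tested at 5 concentrations; 48 h exposure; 96-well plates; endpoints linearly interpolated, else capped at highest concentration. GI50 is the concentration that inhibits growth by half. TGI: concentration producing complete growth inhibition.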

Among the test systems are A498 renal; CCRF-CEM leukemia; COLO 205 colon; HS 578T breast; LOX IMVI melanoma; MCF7 breast; PC-3 prostate; UO-31 renal.
Common to all, as to assay: growth of human tumour cells (NCI), 48 h

For `COc1ccc(CCN2CCC(CN(C)Cc3cnn(-c4ccccc4)c3)CC2)cc1`, the GI50 in the assay on A498 renal is 1.58 µM; in the assay on CCRF-CEM leukemia, 21 µM; in the assay on COLO 205 colon it was 3.42 µM; in the assay with HS 578T breast it was 13.5 µM; in the assay on LOX IMVI melanoma it was 12.1 µM; in the assay on MCF7 breast it was 13.9 µM. The GI50 in the assay with PC-3 prostate was 25.1 µM; in the assay with UO-31 renal it was 3.37 µM. In addition, the TGI stood at 7.78 µM in the assay on A498 renal; 78.6 µM in the assay with CCRF-CEM leukemia; 11.7 µM in the assay with COLO 205 colon; 32.6 µM in the assay on HS 578T breast; 24.8 µM with LOX IMVI melanoma; 28.2 µM with MCF7 breast. The TGI is greater than 100 µM in the assay on PC-3 prostate and 16.2 µM with UO-31 renal.
Regarding `COC1CC(N)C(O)C(C)O1` (stereo unspecified), the TGI in the assay on A498 renal, in the assay with CCRF-CEM leukemia, in the assay on COLO 205 colon, in the assay with HS 578T breast, in the assay with LOX IMVI melanoma and in the assay on MCF7 breast was greater than 100 µM in each case. The TGI with PC-3 prostate and in the assay on UO-31 renal was greater than 100 µM in each case.
With `CC(=O)/C=C/c1ccc(OCc2ccc(Cl)cc2)cc1`, the GI50 is 254 µM with A498 renal; 577 µM in the assay on CCRF-CEM leukemia; 287 µM in the assay on COLO 205 colon; greater than 1000 µM in the assay on HS 578T breast; 343 µM in the assay on LOX IMVI melanoma; 644 µM in the assay with MCF7 breast. In addition, the GI50 in the assay with PC-3 prostate is 725 µM; in the assay with UO-31 renal, 556 µM. The TGI in the assay on A498 renal, with CCRF-CEM leukemia, with COLO 205 colon, with HS 578T breast, with LOX IMVI melanoma and in the assay on MCF7 breast was greater than 1000 µM in each case. Besides, the TGI with PC-3 prostate and in the assay on UO-31 renal was greater than 1000 µM each time.
With `CC1(C)Cc2c(Br)c(Br)c(Br)c(OCC(O)CN3CCN(c4ccccn4)CC3)c2O1` (stereo unspecified), the GI50 in the assay with A498 renal is 14.8 µM; in the assay with CCRF-CEM leukemia, 3.81 µM; in the assay with COLO 205 colon, 15 µM; in the assay on HS 578T breast it was 18.6 µM; in the assay with LOX IMVI melanoma, 9.22 µM; with MCF7 breast it was 10.3 µM. For the same molecule, the GI50 with PC-3 prostate was 5.58 µM; in the assay with UO-31 renal it was 11 µM. Also, the TGI in the assay on A498 renal was 29.5 µM; in the assay on CCRF-CEM leukemia it was greater than 100 µM; in the assay with COLO 205 colon, 34.4 µM; with HS 578T breast, 39.2 µM; in the assay on LOX IMVI melanoma, 21.4 µM; in the assay on MCF7 breast, 22.4 µM. The values for the TGI in the assay on PC-3 prostate and with UO-31 renal were 22.5 µM and 24 µM, respectively.
Take `COc1cc2c(c(OC)c1OC)-c1ccc(N=NC(N)=S)c(=O)cc1[C@@H](NC(C)=O)CC2`: the GI50 was 0.477 µM with A498 renal; 0.535 µM in the assay on CCRF-CEM leukemia; 0.26 µM in the assay with COLO 205 colon; 0.294 µM with HS 578T breast; 0.618 µM in the assay with LOX IMVI melanoma; 0.364 µM in the assay with MCF7 breast. The GI50 in the assay with PC-3 prostate is 0.617 µM; in the assay on UO-31 renal, 6.92 µM. The TGI in the assay on A498 renal is 3.15 µM; with CCRF-CEM leukemia, greater than 100 µM; with COLO 205 colon it was 0.682 µM; in the assay on LOX IMVI melanoma, greater than 100 µM; in the assay on MCF7 breast, greater than 100 µM; in the assay with PC-3 prostate, greater than 100 µM. Further, the TGI in the assay with UO-31 renal was greater than 100 µM.
`N#CC(C#N)=C/C=C(\Sc1ccc(F)cc1Cl)c1ccc(Cl)cc1`: the GI50 is 8.97 µM in the assay on A498 renal; 0.107 µM with CCRF-CEM leukemia; 0.515 µM with COLO 205 colon; 1.53 µM in the assay on HS 578T breast; 0.318 µM in the assay on LOX IMVI melanoma; 0.417 µM in the assay on MCF7 breast. Further, the GI50 in the assay with PC-3 prostate was 1.42 µM; with UO-31 renal, 1.78 µM. Also, the TGI in the assay with A498 renal was 24 µM; with COLO 205 colon, 5.02 µM; in the assay with HS 578T breast it was 28.2 µM; with LOX IMVI melanoma, 1.3 µM; in the assay on MCF7 breast it was 2.55 µM; in the assay with PC-3 prostate, 10.4 µM. Also, in the assay with UO-31 renal, the TGI is greater than 40.3 µM.
On to `Nc1nc(N)c2nc3c(nc2n1)CCCCCCCCCC3`, for which the GI50 was 6.9 µM with A498 renal; 6.24 µM in the assay with CCRF-CEM leukemia; 6.83 µM in the assay with COLO 205 colon; 3.63 µM with HS 578T breast; 0.733 µM in the assay on LOX IMVI melanoma; 2.96 µM in the assay on MCF7 breast. Also, the values for the GI50 in the assay on PC-3 prostate and in the assay with UO-31 renal were 5.73 µM and 1.88 µM, respectively. The TGI with A498 renal, in the assay with CCRF-CEM leukemia, with COLO 205 colon, in the assay on HS 578T breast, in the assay with LOX IMVI melanoma and in the assay with MCF7 breast was greater than 100 µM each time. Besides, the TGI with PC-3 prostate and with UO-31 renal was greater than 100 µM each time.
On to `Cn1cc(C2=C(Nc3ccccc3)C(=O)NC2=O)c2ccccc21`, for which the GI50 in the assay with A498 renal, in the assay with CCRF-CEM leukemia, in the assay with COLO 205 colon, in the assay with HS 578T breast, with LOX IMVI melanoma and with MCF7 breast was greater than 25 µM in each case. Besides, the GI50 in the assay on PC-3 prostate was greater than 25 µM; in the assay with UO-31 renal, greater than 19.5 µM. Moreover, the TGI in the assay with A498 renal, in the assay with CCRF-CEM leukemia, in the assay with COLO 205 colon, in the assay with HS 578T breast, in the assay with LOX IMVI melanoma and in the assay on MCF7 breast was greater than 25 µM in each case. Further, the TGI in the assay with PC-3 prostate and in the assay with UO-31 renal was greater than 25 µM in each case.
`COc1cnc2c(c1)C(=O)c1c-2n(CCCN2CCC(O)CC2)c(=O)c2cc(Cl)ccc12`: the GI50 in the assay on A498 renal was 0.704 µM; in the assay on CCRF-CEM leukemia, 0.066 µM; with COLO 205 colon it was 0.661 µM; in the assay on HS 578T breast, 14.1 µM; with LOX IMVI melanoma, 0.0758 µM; with MCF7 breast, 0.0422 µM. Also, the GI50 is 1.46 µM with PC-3 prostate and 0.271 µM in the assay on UO-31 renal. Besides, the TGI was 21.8 µM in the assay on A498 renal; greater than 100 µM with CCRF-CEM leukemia; 2.64 µM with COLO 205 colon; 37.5 µM in the assay with HS 578T breast; 1.46 µM in the assay with LOX IMVI melanoma; 1.54 µM in the assay on MCF7 breast. Also, the TGI in the assay with PC-3 prostate came to 3.56 µM; with UO-31 renal, 1.59 µM.
`CC(=O)O[C@H]1CC[C@@]2(C)C(=C/C(=N/OCCN3CCCC3)[C@H]3[C@@H]4CC[C@H](OC(C)=O)[C@@]4(C)CC[C@@H]32)C1`: the GI50 was 76.7 µM with A498 renal; 42.9 µM with CCRF-CEM leukemia; 18.5 µM with COLO 205 colon; 34.9 µM in the assay on HS 578T breast; 19.6 µM in the assay on LOX IMVI melanoma; 53.4 µM in the assay on MCF7 breast. Moreover, the GI50 was 40.5 µM in the assay with PC-3 prostate and 20.8 µM in the assay on UO-31 renal. Further, the TGI in the assay on A498 renal is greater than 100 µM; in the assay on CCRF-CEM leukemia, greater than 100 µM; in the assay on COLO 205 colon, 34.9 µM; in the assay on HS 578T breast, greater than 100 µM; with LOX IMVI melanoma, 38.1 µM; in the assay with MCF7 breast, greater than 100 µM. Further, the TGI was greater than 100 µM with PC-3 prostate and 53.3 µM in the assay with UO-31 renal.
As for `CC(=O)Nc1n[n+]([O-])c2cc(C)ccc2[n+]1[O-]`, the TGI in the assay with A498 renal was 19.4 µM; with CCRF-CEM leukemia it was greater than 47.4 µM; with COLO 205 colon, 8.48 µM; with HS 578T breast, 40.7 µM; in the assay on LOX IMVI melanoma, 11.5 µM; with MCF7 breast it was 3.66 µM. Besides, the TGI turned out to be 14.8 µM with PC-3 prostate and 17.2 µM in the assay on UO-31 renal.
With `O=C1N(Cc2ccccc2Cl)c2ccccc2C12NN=C(c1cccc(Cl)c1)S2` (stereo unspecified), the GI50 in the assay on A498 renal was 1.54 µM; with CCRF-CEM leukemia, 1.86 µM; with COLO 205 colon it was 1.77 µM; in the assay on HS 578T breast, 2.4 µM; in the assay on LOX IMVI melanoma, 1.49 µM; in the assay with MCF7 breast, 1.75 µM. Besides, the GI50 in the assay on PC-3 prostate was 1.74 µM; with UO-31 renal, 1.69 µM. The TGI turned out to be 2.95 µM in the assay with A498 renal; 4.93 µM in the assay with CCRF-CEM leukemia; 3.3 µM in the assay with COLO 205 colon; 5.85 µM in the assay on HS 578T breast; 2.92 µM in the assay on LOX IMVI melanoma; 3.37 µM in the assay with MCF7 breast. For the same molecule, the TGI amounted to 3.45 µM in the assay on PC-3 prostate and 3.26 µM with UO-31 renal.
Regarding `CCN1C(=NCCO)NS(=O)(=O)c2ccccc21`, the TGI with A498 renal, in the assay with CCRF-CEM leukemia, in the assay on COLO 205 colon, in the assay on HS 578T breast, in the assay with LOX IMVI melanoma and in the assay with MCF7 breast was greater than 100 µM throughout. Further, the TGI with PC-3 prostate and with UO-31 renal was greater than 100 µM throughout.
Regarding `COC(=O)C(C(=O)OC)C(Br)C(Br)C(Br)c1ccccc1` (stereo unspecified), the GI50 is 15.5 µM in the assay with A498 renal; 2.08 µM in the assay with CCRF-CEM leukemia; 2.14 µM with COLO 205 colon; 18.4 µM in the assay with HS 578T breast; 1.5 µM with LOX IMVI melanoma; 2.43 µM in the assay with MCF7 breast. For the same molecule, the GI50 in the assay on PC-3 prostate was 11.5 µM; in the assay with UO-31 renal it was 1.74 µM. Besides, the TGI in the assay on A498 renal was determined as 33.1 µM; in the assay with CCRF-CEM leukemia it was 5.79 µM; in the assay with COLO 205 colon it was 4.62 µM; in the assay on HS 578T breast it was 62.8 µM; in the assay with LOX IMVI melanoma it was 3.34 µM; with MCF7 breast, 9.68 µM. Also, the figures for the TGI in the assay with PC-3 prostate and in the assay with UO-31 renal were 24.6 µM and 3.42 µM, respectively.
`CC(C)(C)N/N=C(\C(=O)NC1=C(Cl)C(=O)c2ccccc2C1=O)C1C=CCS1(=O)=O` (stereo unspecified): the TGI in the assay on A498 renal was 36.7 µM; in the assay with CCRF-CEM leukemia, greater than 100 µM; in the assay on COLO 205 colon it was 30.2 µM; in the assay on HS 578T breast it was 64.8 µM; in the assay on LOX IMVI melanoma, 39.7 µM; in the assay with MCF7 breast, 29 µM. Also, the TGI amounted to 62.2 µM in the assay on PC-3 prostate and 37.7 µM with UO-31 renal.
